Data from ChEMBL document CHEMBL1131207, “Discovery and evaluation of a series of 3-acylindole imidazopyridine platelet-activating factor antagonists” (J Med Chem, 1998).
pKi: −log10 of the molar value. In brackets after ≈: the same amount, converted by molar mass.

Columns and labels:
[1] = target: Platelet-activating factor receptor (Rattus norvegicus) (UniProt P46002); assay: Ability to block the effect of exogenously administered PAF upon intravenous administration in PAF-induced rat skin permeability assay; assay type: functional, organism-based
Platelet-activating factor receptor (Rattus norvegicus), sequence (P46002 whole entry): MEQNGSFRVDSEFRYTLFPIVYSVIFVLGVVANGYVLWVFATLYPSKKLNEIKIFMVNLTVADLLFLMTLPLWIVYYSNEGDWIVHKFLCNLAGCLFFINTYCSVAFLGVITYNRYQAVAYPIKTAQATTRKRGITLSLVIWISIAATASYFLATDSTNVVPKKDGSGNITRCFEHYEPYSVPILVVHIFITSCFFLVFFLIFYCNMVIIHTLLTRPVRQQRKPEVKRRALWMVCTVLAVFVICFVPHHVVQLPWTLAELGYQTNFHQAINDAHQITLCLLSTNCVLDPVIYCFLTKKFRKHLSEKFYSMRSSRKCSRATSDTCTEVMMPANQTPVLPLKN

[2] = The compound was evaluated for its solubility in lactate buffer at pH 3; assay type: ADME
[3] = system: Rattus norvegicus; assay: The compound was evaluated for its PAF-induced vascular permeability in rat when dosed orally; assay type: functional; conditions: po
[4] = The compound was evaluated for its bioavailability in rat; assay type: ADME, organism-based; conditions: in vivo
[5] = target: Platelet-activating factor receptor (Homo sapiens, UniProt P25105); assay: The compound was evaluated for its binding affinity against PAF receptor in human platelet
Platelet-activating factor receptor, sequence (P25105 whole entry): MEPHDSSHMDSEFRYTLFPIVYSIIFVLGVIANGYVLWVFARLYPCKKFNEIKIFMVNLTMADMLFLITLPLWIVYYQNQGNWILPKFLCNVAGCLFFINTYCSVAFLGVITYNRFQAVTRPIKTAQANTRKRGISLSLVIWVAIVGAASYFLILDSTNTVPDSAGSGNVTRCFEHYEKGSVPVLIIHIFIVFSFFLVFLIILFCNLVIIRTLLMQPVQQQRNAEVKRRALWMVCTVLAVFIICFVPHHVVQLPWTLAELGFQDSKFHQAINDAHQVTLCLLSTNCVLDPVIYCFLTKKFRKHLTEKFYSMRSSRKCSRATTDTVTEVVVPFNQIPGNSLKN

[6] = system: Cavia porcellus; assay: The compound was evaluated for its PAF-induced vascular permeability in guinea pig when dosed intravenously; assay type: functional; conditions: iv
[7] = system: Cavia porcellus; assay: The compound was evaluated for its PAF-induced vascular permeability in guinea pig when dosed orally; assay type: functional; conditions: po
[8] = The compound was evaluated for its bioavailability in monkey; assay type: ADME, organism-based; conditions: primates, in vivo
[9] = system: Rattus norvegicus; assay: The compound was evaluated for its PAF-induced vascular permeability in rat when dosed intravenously; assay type: functional; conditions: iv
[10] = target: Platelet-activating factor receptor (Rattus norvegicus) (UniProt P46002); assay: Tested in vivo for to block the effect of exogenously administered PAF upon oral administration in PAF-induced rat skin permeability assay; assay type: functional, organism-based
[11] = The solubility in lactate buffer at pH 3 was evaluated; assay type: ADME
[12] = system: Cavia porcellus; assay: The compound was evaluated for PAF-induced vascular permeability in guinea pig when dosed orally; assay type: functional; conditions: po
[13] = system: Cavia porcellus; assay: The compound was evaluated for PAF-induced vascular permeability in guinea pig when dosed intravenously; assay type: functional; conditions: iv
[14] = The bioavailability in rat was evaluated; assay type: ADME, organism-based; conditions: in vivo
[15] = The bioavailability in monkey was evaluated; assay type: ADME, organism-based; conditions: primates, in vivo

In the case of `Cc1nc2cnccc2n1Cc1ccc(C(=O)c2cn(C(=O)N(C)C)c3cc(-c4ccc(F)cc4)ccc23)cc1`, the ED50 [1] was 0.068 mg/kg, the solubility [2] was 0.12 mg/mL (≈ 0.226 mM) and the ED50 [3] was 0.5 mg/kg.

For `CC(=O)OC[n+]1cccc([C@H]2SCc3c(C(=O)c4cn(C(=O)N(C)C)c5cc(-c6ccc(F)cc6)ccc45)ccn32)c1.[Cl-]`, the bioavailability [4] was 46%, the pKi [5] was 9.01 and the ED50 [6] was 0.09 mg/kg. It also gave an ED50 [7] of 0.08 mg/kg, an ED50 [3] of 0.08 mg/kg and a bioavailability [8] of 36%. The ED50 [9] was 0.006 mg/kg.

`Cc1nc2cnccc2n1Cc1ccc(C(=O)c2cn(C(=O)N(C)C)c3cccc(OC(=O)N(C)C)c23)cc1F` showed an ED50 [1] of 0.005 mg/kg and an ED50 [10] of 2.7 mg/kg.

Molecule `CCOC(=O)c1cccc2c1c(C(=O)c1ccc(Cn3c(C)nc4cnccc43)cc1)cn2C(=O)N(C)C` has an ED50 [1] of 0.006 mg/kg and an ED50 [10] of over 1 mg/kg.

With `COC(=O)c1cccc2c1c(C(=O)c1ccc(Cn3c(C)nc4cnccc43)cc1)cn2C(=O)N1CCCC1` the ED50 [1] was 0.005 mg/kg and the ED50 [10] was 1.2 mg/kg.

In the case of `COc1cccc2c1c(C(=O)c1ccc(Cn3c(C)nc4cnccc43)cc1)cn2C(=O)N(C)C`, the ED50 [1] was 0.007 mg/kg and the ED50 [10] was 0.22 mg/kg.

In the case of `Cc1nc2cnccc2n1Cc1ccc(C(=O)c2cn(C(=O)N(C)C)c3cccc(-c4ccco4)c23)cc1`, the ED50 [1] was 0.007 mg/kg and the ED50 [10] was 0.79 mg/kg.

Molecule `CCOC(=O)[C@H](CC(C)C)N(C)S(=O)(=O)c1ccc(Cn2c(C)nc3cnccc32)cc1` [LEXIPAFANT] has a pKi [5] of 9.42, an ED50 [6] of 0.027 mg/kg and a solubility [2] of over 20 mg/mL. For the same molecule, the ED50 [7] was 10.3 mg/kg, the ED50 [3] was 0.8 mg/kg and the ED50 [9] was 0.02 mg/kg.

With `COC(=O)c1cc(Br)cc2c1c(C(=O)c1ccc(Cn3c(C)nc4cnccc43)cc1)cn2C(=O)N(C)C` the ED50 [1] was 0.009 mg/kg and the ED50 [10] was 0.83 mg/kg.

For `Cc1nc2cnccc2n1Cc1ccc(C(=O)c2cn(C(=O)N(C)C)c3cccc(OC(=O)N(C)C)c23)cc1`, the ED50 [1] was 0.005 mg/kg and the ED50 [10] was 0.34 mg/kg.

Molecule `C#Cc1cccc2c1c(C(=O)c1ccc(Cn3c(C)nc4cnccc43)c(F)c1)cn2C(=O)N(C)C` has a solubility [11] of over 20 mg/mL, an ED50 [12] of 0.29 mg/kg and an ED50 [13] of 0.016 mg/kg. It also gave a bioavailability [14] of 49%, a pKi [5] of 9.24 and a bioavailability [15] of 56%. For the same molecule, the ED50 [1] was 0.003 mg/kg and the ED50 [10] was 0.094 mg/kg.

Molecule `C#Cc1cccc2c1c(C(=O)c1ccc(Cn3c(C)nc4cnccc43)cc1)cn2C(=O)N(C)C` has an ED50 [1] of 0.003 mg/kg and an ED50 [10] of 0.14 mg/kg.

Work on `CCc1cccc2c1c(C(=O)c1ccc(Cn3c(C)nc4cnccc43)cc1)cn2C(=O)N(C)C` yielded an ED50 [1] of 0.003 mg/kg and an ED50 [10] of 0.078 mg/kg.

In the case of `CCOCCn1cc(C(=O)c2ccc(Cn3c(C)nc4cnccc43)cc2)c2c(C(=O)OC)cccc21`, the ED50 [1] was 0.012 mg/kg and the ED50 [10] was 1.1 mg/kg.

In the case of `Cc1nc2cnccc2n1CCCCCC(=O)c1cn(C(=O)N(C)C)c2cccc(-c3ccc(F)cc3)c12`, the ED50 [1] was 0.005 mg/kg and the ED50 [10] was over 1 mg/kg.

With `COC(=O)c1cccc2c1c(C(=O)CCCCCn1c(C)nc3cnccc31)cn2C(=O)N(C)C` the ED50 [1] was 0.013 mg/kg and the ED50 [10] was 1.1 mg/kg.

With `Cc1cccc2c1c(C(=O)CN1CCC(n3c(C)nc4cnccc43)CC1)cn2C(=O)N(C)C` the ED50 [1] was 0.005 mg/kg and the ED50 [10] was 0.14 mg/kg.

In the case of `COC(=O)c1cccc2c1c(C(=O)c1ccc(Cn3c(C)nc4cnccc43)c(F)c1)cn2C(=O)N(C)C`, the ED50 [1] was 0.006 mg/kg and the ED50 [10] was 0.36 mg/kg.

With `COC(=O)c1cccc2c1c(C(=O)c1ccc(Cn3c(C)nc4cnccc43)cc1)cn2CC(=O)N(C)C` the ED50 [1] was 0.012 mg/kg and the ED50 [10] was 2.4 mg/kg.

In the case of `COC(=O)c1cc(-c2ccc(F)cc2)cc2c1c(C(=O)c1ccc(Cn3c(C)nc4cnccc43)cc1)cn2C(=O)N(C)C`, the ED50 [1] was 0.002 mg/kg and the ED50 [10] was 0.64 mg/kg.

With `COC(=O)c1cccc2c1c(C(=O)Cc1ccc(-n3c(C)nc4cnccc43)cc1)cn2C(=O)N(C)C` the ED50 [1] was 0.005 mg/kg and the ED50 [10] was 0.17 mg/kg.

`Cc1nc2cnccc2n1Cc1ccc(C(=O)c2cn(C(=O)N(C)C)c3cccc(Cl)c23)cc1` showed an ED50 [1] of 0.008 mg/kg and an ED50 [10] of 0.12 mg/kg.

Work on `COC(=O)c1cccc2c1c(C(=O)C1CCC(Cn3c(C)nc4cnccc43)CC1)cn2C(=O)N(C)C` (configuration not stated) yielded an ED50 [1] of 0.02 mg/kg and an ED50 [10] of over 1 mg/kg.
